From patent publication US7235585B2 (priority 2002, dated 2007)
Read-outs that look alike come from different tables or passages of the source.

Columns and labels:
[1] = system: WiDr cells (a colon carcinoma cell line) engineered for stable expression of stCPG2(Q)3; assay: cells; assay type: cell-based; conditions: for IC50: read-out: IC50 stCPG2(Q)3
[2] = system: WiDr cells (a colon carcinoma cell line) engineered for stable expression of β-galactosidase (β-gal); conditions: cited from earlier work
[3] = system: WiDr cells (a colon carcinoma cell line) engineered for stable expression of stCPG2(Q)3; conditions: cited from earlier work
[4] = system: WiDr cells (a colon carcinoma cell line) engineered for stable expression of β-galactosidase (β-gal); assay: cells; assay type: cell-based; conditions: read-out: IC50 LacZ
[5] = buffer; for T1/2 prodrug: pH 7.3
CPG2 = CPG2 (Pseudomonas sp., UniProt P06621); assay type: biochemical, Pseudomonas R16
Sequence of CPG2 (P06621 23-415): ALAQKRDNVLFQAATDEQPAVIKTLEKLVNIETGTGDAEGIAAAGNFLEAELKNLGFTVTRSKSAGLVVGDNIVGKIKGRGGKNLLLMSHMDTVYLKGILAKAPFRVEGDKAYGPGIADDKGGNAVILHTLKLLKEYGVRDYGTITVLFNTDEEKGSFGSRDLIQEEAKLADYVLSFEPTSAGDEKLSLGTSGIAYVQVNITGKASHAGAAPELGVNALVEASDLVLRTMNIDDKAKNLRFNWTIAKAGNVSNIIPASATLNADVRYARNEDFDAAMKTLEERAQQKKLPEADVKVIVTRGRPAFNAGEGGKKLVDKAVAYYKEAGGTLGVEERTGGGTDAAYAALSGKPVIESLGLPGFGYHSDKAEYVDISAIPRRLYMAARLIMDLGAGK

Compound	Degree of activation (fold) [1] [fold]	IC50 [2] [µM]	IC50 [3] [µM]	IC50 [4] [µM]	differential in the transfected WiDr cell line [1] [fold]	differentials in the WiDr cell lines compared with CMDA [1]	IC50 [1] [µM]	T1/2 prodrug [5] [min]	T1/2 prodrug/T1/2 drug [5]	kcat (CPG2) [s⁻¹]	IC50 ([4]; Homo sapiens, WiDr) [µM]	IC50 ([1]; Homo sapiens, WiDr) [µM]
CS(=O)(=O)OCCN(CCCl)c1ccc(C(=O)N[C@@H](CCC(=O)O)C(=O)O)cc1 [CMDA, N-{4-[(2-chloroethyl)(2-mesyloxyethyl)amino]benzoyl}-L-glutamic acid]	32.3	3230	100	–	–	–	–	–	–	–	–	–
O=C(O)CCC(NC(=O)Nc1ccc(COC(=O)Nc2ccccc2N(CCI)CCI)cc1)C(=O)O (centres unmarked) [CP-1]	49.7	–	–	149	50	better than those of CMDA	3	2.7	–	–	–	–
O=C(O)CCC(NC(=O)Nc1ccc(COC(=O)Nc2ccc(N(CCI)CCI)cc2)cc1)C(=O)O (centres unmarked) [CP-2]	101.6	–	–	180	–	better than those of CMDA	1.8	0.97	1.9	–	–	–
O=C(O)CCC(NC(=O)Nc1ccc(COC(=O)Nc2ccccc2N(CCBr)CCBr)cc1)C(=O)O (centres unmarked) [CP-3]	24.9	–	–	118	25	–	4.7	3.0	3.5	–	–	–
O=C(O)CCC(NC(=O)Nc1ccc(COC(=O)Nc2ccc(N(CCBr)CCBr)cc2)cc1)C(=O)O (centres unmarked) [CP-4]	66.6	–	–	205	–	better than those of CMDA	3.1	0.85	0.4	–	–	–
O=C(O)CCC(NC(=O)Nc1ccc(COC(=O)Nc2ccccc2N(CCCl)CCCl)cc1)C(=O)O (centres unmarked) [CP-5]	4.7	–	–	21.1	–	–	4.5	107.5	13.9	2.92	–	–
O=C(O)CCC(NC(=O)Nc1ccc(COC(=O)Nc2ccc(N(CCCl)CCCl)cc2)cc1)C(=O)O (centres unmarked) [CP-6]	–	–	–	–	–	–	–	–	–	10 to 50	–	–
CS(=O)(=O)OCCN(CCOS(C)(=O)=O)c1ccccc1NC(=O)OCc1ccc(OC(=O)NC(CCC(=O)O)C(=O)O)cc1 (centres unmarked) [CP-7]	5.2	–	–	208	–	–	40	10.8	–	–	–	–
O=C(O)CCC(NC(=O)Oc1ccc(COC(=O)Nc2ccccc2N(CCI)CCI)cc1)C(=O)O (centres unmarked) [CP-8]	3.9	–	–	73.3	–	–	19	2.1	–	–	–	–
O=C(O)CCC(NC(=O)Oc1ccc(COC(=O)Nc2ccc(N(CCI)CCI)cc2)cc1)C(=O)O (centres unmarked) [CP-9]	42.5	–	–	53.6	–	better than those of CMDA	1.3	0.98	2.0	–	–	–
O=C(O)CCC(NC(=O)Oc1ccc(COC(=O)Nc2ccccc2N(CCBr)CCBr)cc1)C(=O)O (centres unmarked) [CP-10]	1.9	–	–	183	–	–	95.2	3.47	3.5	–	–	–
O=C(O)CCC(NC(=O)Oc1ccc(COC(=O)Nc2ccc(N(CCBr)CCBr)cc2)cc1)C(=O)O (centres unmarked) [CP-11]	38.3	–	–	99.7	–	better than those of CMDA	2.6	0.9	0.4	–	–	–
O=C(O)CCC(NC(=O)Oc1ccc(COC(=O)Nc2ccccc2N(CCCl)CCCl)cc1)C(=O)O (centres unmarked) [CP-12]	1.4	–	–	38.1	–	–	28.1	146.3	11.9	4.27	–	–
O=C(O)CCC(NC(=O)Oc1ccc(COC(=O)Nc2ccc(N(CCCl)CCCl)cc2)cc1)C(=O)O (centres unmarked) [CP-13]	–	–	–	–	–	–	–	–	–	<10	–	–
CS(=O)(=O)OCCN(CCCl)c1ccccc1NC(=O)OCc1ccc(OC(=O)NC(CCC(=O)O)C(=O)O)cc1 (centres unmarked) [CP-14]	5.2	–	–	148	–	–	28.5	10.0	–	–	–	–
CN(C(=O)OCc1ccc(OC(=O)NC(CCC(=O)O)C(=O)O)cc1)c1ccc(N(CCI)CCI)cc1 (centres unmarked) [CP-15]	8.3	–	–	21.5	–	–	2.6	4.6	7.7	–	–	–
CN(C(=O)OCc1ccc(OC(=O)NC(CCC(=O)O)C(=O)O)cc1)c1ccc(N(CCBr)CCBr)cc1 (centres unmarked) [CP-16]	7.5	–	–	27.2	–	–	3.6	2.7	1.0	–	–	–
CN(C(=O)OCc1ccc(OC(=O)NC(CCC(=O)O)C(=O)O)cc1)c1ccc(N(CCCl)CCCl)cc1 (centres unmarked) [CP-17]	11.5	–	–	19.6	–	–	1.7	173.6	20.6	4.32	–	–
CN(C(=O)OCc1ccc(NC(=O)NC(CCC(=O)O)C(=O)O)cc1)c1ccc(N(CCI)CCI)cc1 [Compound P-1, 4-{N-[4′-bis(2″-iodoethyl)amino-phenyl]-N-methyl-carbamoyl-oxymethyl}-phenyl-carbamoyl-L-glutamic acid]	124.0	–	–	–	–	better than those of CMDA	–	–	6.5	–	185	1.5
CN(C(=O)OCc1ccc(NC(=O)NC(CCC(=O)O)C(=O)O)cc1)c1ccc(N(CCBr)CCBr)cc1 [Compound P-2, 4-{N-[4′-bis(2″-bromoethyl)amino-phenyl]-N-methyl-carbamoyl-oxymethyl}-phenyl-carbamoyl-L-glutamic acid]	81.4	–	–	–	–	better than those of CMDA	–	–	1.0	–	332	4.1
CN(C(=O)OCc1ccc(NC(=O)NC(CCC(=O)O)C(=O)O)cc1)c1ccc(N(CCCl)CCCl)cc1 [Compound P-3, 4-{N-[4′-bis(2″-chloroethyl)amino-phenyl]-N-methyl-carbamoyl-oxymethyl}-phenyl-carbamoyl-L-glutamic acid]	15.9	–	–	–	–	–	–	–	20.9	5.50	39.7	2.5
